Laboratory results from patent publication EP0751957B1, “PEPTIDE FRAGMENTS OF MICROBIAL STRESS PROTEINS AND PHARMACEUTICAL COMPOSITION MADE THEREOF FOR THE TREATMENT AND PREVENTION OF INFLAMMATORY DISEASES” (priority 1994, dated 2004).

Experiments:
adjuvant arthritis = assay: Adjuvant arthritis (AA) induced with Mt in IFA, clinical arthritis score; type: in vivo, Lewis rats; details: 100 µg peptide in DDA, hind footpads, 7 days prior to AA induction with Mt
Protocol: Induction and clinical assessment of experimental arthritis: Arthritis was induced by a single intradermal injection in the base of the tail. AA was induced with 0.5 mg Mt suspended in 100 µl IFA. CP20961 arthritis was induced with 2 mg CP20961 in 100 µl light mineral oil (Sigma). Rats were examined daily for clinical signs of arthritis. Severity of arthritis was assessed by scoring each paw from zero to four based on degree of swelling, erythema and deformity of the joints. Thus the maximum possible arthritis score was 16.
Modulation of arthritis with hsp65 peptides and epitope-specific T cell lines: Synthetic peptides corresponding to eight T cell epitopes present in mycobacterial hsp65 were tested for protective effects on arthritis development. Rats were immunised with 100 µg of individual peptide seven days prior to arthritis induction. Peptides were immunised in each hind footpad in 10 mg/ml DDA (50 µl/pad). Control rats received only PBS/DDA. Epitope-specific T cell lines were also tested for protective activity by intravenous administration of lines at the time of arthritis induction. T cell lines were restimulated in vitro with irradiated spleen APC and specific peptide. Four days later T cell blasts were harvested by ficoll gradient, washed and applied to a second ficoll gradient to remove any contaminating APC. T cells were washed twice in wash medium and twice in PBS and finally suspended at 2.5x10^7/ml in PBS. Immediately prior to injection of Mt, 200 µl (i.e. 5x10^6) T cells were injected i.v. in the tail vein.
The effects of preimmunisation with synthetic peptides containing individual epitopes on the development of AA were analysed (Fig. 7). The eight peptides which primed for epitope specific T cells were tested. Rats were immunised with 100 µg of peptide 7 days prior to AA-induction with Mt.

[1] = tested on: Peptide-specific T cell lines; assay: T cell proliferation assay, peptide-specific T cell lines from peptide-immunised rats; type: cell-based, Lewis rats; details: T cell line from 176-190-immunised PLNC; in vitro peptide 10 µg/ml
Protocol: (§1) T cell proliferation assays: PLNC were cultured in triplicate in 200 µl flat bottom microtitre wells (Costar) at 2 x 10^5 cells per well with or without antigen. In initial experiments PLNC were tested for responsiveness to individual peptides at concentrations of 5 and 20 µg/ml, and Mt, hsp65 and PPD over a range of concentrations. Concanavalin A (2 µg/ml) was used as a positive control for T cell proliferation. Cultures were incubated for 96 h at 37°C in a humidified atmosphere of 5% CO2. Cultures were pulsed for the final 16 h with [^3H] TdR (Amersham, U.K., 1 uCi/well) and TdR uptake measured using a liquid scintillation β counter. Assays using T cell lines were performed as above using 2 x 10^4 line cells per well with irradiated (30 Gy) syngeneic accessory cells (either 3 x 10^5 splenocytes/well or 10^6 thymocytes/well). Results are expressed as mean counts per minute (cpm) of triplicate cultures. In experiments where responses to Ag were low, responses were considered significant if the stimulation index (S.I. = […]) was greater than two and Student's t tests gave p < 0.01.
T cell lines: T cell lines with specificity for mycobacterial hsp65 or peptides were generated by bulk stimulation of either hsp65-PLNC or Mt-PLNC. PLNC were cultured at 5 x 10^6/ml in culture medium supplemented with 2% normal rat serum (NRS) in the presence of 10 µg/ml Ag. After three days viable cells were harvested using a ficoll-isopaque gradient and cultured for a further four days in culture medium + 5% FCS and 5% TCGF (Con A-activated rat spleen supernatant). Seven days after initial stimulation lines were restimulated with irradiated spleen accessory cells and 10 µg/ml Ag in culture medium + NRS. Lines were maintained ir. this seven day restimulation cycle. Short term epitope-specific T cell lines were also generated from rats immunised with synthetic peptides. Peptide-PLNC were cultured as above in the presence of 10 µg/ml peptide.
Bulk stimulation generated T cell lines to eight of the nine peptides tested. These eight lines were tested for specificity after four in vitro restimulations (Table II). All responded to the immunising peptide and, to some extent, to hsp65.
T cell responses by immunisation with hsp65 peptides. Rats were immunised with synthetic peptides containing individual hsp65 epitopes (100 µg peptide/DDA per rat). Ten days later PLNC were isolated and tested for responses to overlapping peptides (20 µg/ml). Peptide-specific T cell lines were generated by bulk in vitro stimulation of PLNC with immunising peptide. Lines were tested for responses to overlapping peptides (10 µg/ml). […] Results are expressed as mean cpm of triplicate cultures. All SEM were less than 20%.

[2] = tested on: PLNC from preimmunised rats; assay: T cell proliferation assay, PLNC of peptide-preimmunised AA rats 42 days after Mt; type: cell-based, Lewis rats; details: 42 days after Mt administration
Protocol: Immunisations with synthetic peptides and primed lymph node populations: Rats were immunised with 50 µg of synthetic peptide in PBS/DDA in each hind footpad (i.e. 50 µg/footpad, 100 µg/rat). Ten days later, draining popliteal lymph nodes were removed, disaggregated, washed three times and used as a source of primed lymph node cells (PLNC). In some experiments, PLNC were derived as pooled inguinal and popliteal lymph nodes from AA rats 35-42 days post Mt immunisation.
as §1
PLNC from preimmunised rats were tested for responsiveness to hsp65 epitopes 42 days after Mt administration (Fig. 8). […] Responses to peptide 176-190 containing the AA-associated epitope were found in all PLNC populations (and enhanced after 176-190 preimmunisation) with one exception.

[3] = tested on: hsp65-specific T cell line; assay: T cell proliferation assay, hsp65-specific T cell line; type: cell-based, Lewis rats; details: short term lines from ten day hsp65-PLNC, seven days after first restimulation
Protocol: as §1
T cell lines: T cell lines with specificity for mycobacterial hsp65 or peptides were generated by bulk stimulation of either hsp65-PLNC or Mt-PLNC. PLNC were cultured at 5 x 10^6/ml in culture medium supplemented with 2% normal rat serum (NRS) in the presence of 10 µg/ml Ag. […]

RT1.B^1 molecules = assay: Inhibition of proliferation of T cell lines with other Ag specificities (MHC affinity, preliminary); type: cell-based, Lewis rats; details: preliminary experiments, data not shown
Protocol: The relatively low quantities of hsp65 present in the Mt preparation might result in focusing of T cell responses on hsp65 epitopes with higher affinities for MHC class II molecules. […] Thus, when Ag concentrations are limited (i.e. following Mt immunisation) dominance of T cell epitopes might be more dependent on their relative MHC binding affinities, whereas following immunisation with large quantities of specific antigen (50-100 µg hsp65 per rat) relative dominance might not be simply a function of affinity for MHC. Clearly, antigen processing of the intact hsp65 molecule will determine the peptide fragments generated during in vivo priming, and the naturally processed fragments will not be identical to the synthetic 15mers used in this study. Also the molecular context of hsp65 (i.e recombinant monomeric hsp65, or the multimeric native protein in the Mt preparation) could affect antigen processing and influence the pattern of epitope recognition.

## peptide 176-190: synthetic 15mer of mycobacterial hsp65 containing the AA-associated epitope 180-188
Adjuvant arthritis
  protection against AA development after peptide preimmunisation: no effect on AA onset
[1]
  CPM T Cell Line: 31400 cpm
[2]
  PLNC response to peptide, rats preimmunised with PBS/DDA alone: significant responses
[2]; rats protected from AA
  PLNC response to peptide, rats preimmunised with peptide 256-270: total lack of response
[3]
  hsp65-specific T cell line response to peptide: strong responses
RT1.B^1 molecules
  affinity for RT1.B^1 molecules relative to peptides 211-225 or 226-240: higher affinity
